Where no end group is shown, it is not given here.
How the values were obtained:
[1] = test system: macrophage Cx43 hemichannel activities, RAW 264.7 cells; assay: Lucifer Yellow dye uptake, hemichannel permeability, calcium-depleted; type: cell-based, murine; conditions: LPS 0.5 μg/ml, 16 h, LY 15 min, P < 0.05 versus +LPS
From the text: Because connexon is the structural unit for both hemichannel (1 connexon) and gap junction (2 connexons from opposing cells), which are both permeable to similar molecular weight molecules, such as the Lucifer yellow (LY). Thus, the LY dye uptake could be used to determine the channel permeability of both hemichannel (as indicated by the rate of LY entry into the cells) and gap junction channels (as judged by the distance of intercellular LY diffusion). The LY dye uptake assay relied on the ability of this dye present in the extracellular milieu to cross the plasma membrane and became concentrated inside of the cell, which could be quantified by fluorescence microscopy. To determine the effects of Cx43 mimetic peptides on hemichannel permeability, RAW 264.7 cells were subjected to LPS stimulation (0.5 µg/ml, 16 h) before replacing the medium with fresh DMEM containing various Cx43 mimetic peptides, GAP26 (100 µM), TAT-GAP19 (200 µM) or P5 (20 µM). Following a brief incubation (15 min), EGTA (1 mM) was added to deplete free calcium prior to the addition of LY dye (1%). Fifteen min later, cells were fixed with 2% paraformaldehyde, and the number of LY-positive cells was counted. The ratio of LY-positive cells vs. total cell counts (DAPI staining) was used as the measurement of hemichannel permeability.

[2] = test system: Balb/c mice, polymicrobial sepsis (CLP); assay: CLP-induced sepsis survival; type: in vivo; conditions: i.p., +6, +18 and +36 h post CLP, two weeks; for survivors: saline 50%; for animal survival (in words): CLP, Balb/c mice
From the text: This study was approved and performed in accordance with the guidelines of the Institutional Animal Care and Use Committee of the Feinstein Institute for Medical Research, Manhasset, New York, USA (Animal Protocol #2008-033, Approval date: September 10, 2014). To evaluate the effect of various Cx43 mimetic peptides on sepsis lethality, a clinically relevant animal model of sepsis induced by cecal ligation and puncture (CLP) was employed. Briefly, the cecum of Balb/c mice was ligated at about 5 mm from the cecal tip, and then punctured once with a 22-gauge needle. GAP26, TAT-GAP19 or P5 peptides were administered intraperitoneally into mice at indicated doses and time points, and animal survival rates were monitored for up to 2 wks. The Kaplan-Meier method was used to compare the differences in mortality rates between groups.

Cx43 EL1 peptide = molecular target: T1, Cx43 EL1 peptide (Homo sapiens, UniProt P17302); assay: Surface Plasmon Resonance, Cx43 EL1 peptide; type: binding; conditions: Cx43 EL1 peptide
T1 construct: synthetic full-length Cx43 EL1 or EL2 peptide as judged by the Surface Plasmon Resonance Analysis
T1 sequence (P17302 45-76 limits assumed): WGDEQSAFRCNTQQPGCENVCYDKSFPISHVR

[3] = test system: Cx43 GJ and hemichannel activities; conditions: cited from earlier work
From the text: The establishment of HMGB1 as a critical mediator of various inflammatory diseases has prompted an on-going search for endogenous and exogenous modulators of HMGB1 secretion. […] We thus evaluated the alteration of macrophage hemichannel activities in the absence or presence of Cx43 mimetic peptides previously shown to be capable of blocking Cx43 hemichannels. […] Because Cx43 GJ and hemichannels often co-exist in plasma membranes, a definitive elucidation of the functions of Cx43 GJ or hemichannels has been quite challenging. First, genetic deletion would eliminate both channels. Secondly, these two types of Cx channels are susceptible to a similar array of chemical blockers. Latel ...

HMGB1 secretion = conditions: cited from earlier work
From the text: (§1) The establishment of HMGB1 as a critical mediator of various inflammatory diseases has prompted an on-going search for endogenous and exogenous modulators of HMGB1 secretion.

PKR phosphorylation = conditions: cited from earlier work
From the text: as §1

Compound: YGRKKRRQRRRK-QIEIKKFK [TAT-GAP19]
- effect on LY dye uptake (hemichannel activities) ([1]; TAT-GAP19 200 μM): elevated LY dye uptake
- survivors ([2]; 15 mg/kg): 60%
- survivors ([2]; 120 mg/kg): 20%
- animal survival (in words) [2]: decreased animal survival particularly when given at a comparable higher dose

Compound: QPGCEN [P4]
- Kd (Cx43 EL1 peptide): 20 µM

Compound: VCYDKSFPISHVR [GAP26, Cx43 mimetic peptide GAP26 (…), first extracellular loop]
- effect on endotoxin-induced hemichannel activities (LY dye uptake) ([1]; GAP26 100 μM): significant impairment of the endotoxin-induced elevation of hemichannel activities
- animal survival (in words) [2]: reproducibly increased animal survival rates
- interruption of GJ formation ([3]; after prolonged application, no reference given): interruption of GJ formation after prolonged application
- inhibition of Cx43 hemichannel activities or gap junction formation [3]: inhibiting Cx43 hemichannel activities or gap junction formation

Compound: CC1(C)[C@@H](OC(=O)CCC(=O)O)CC[C@]2(C)[C@H]3C(=O)C=C4[C@@H]5C[C@@](C)(C(=O)O)CC[C@]5(C)CC[C@@]4(C)[C@]3(C)CC[C@@H]12 [carbenoxolone]
- PKR-mediated HMGB1 secretion (HMGB1 secretion): effectively prevented
- endotoxin-induced PKR phosphorylation (PKR phosphorylation): effectively prevented
- blocking of Cx43 GJ and hemichannel activities ([3]; no reference given): blocking Cx43 GJ and hemichannel activities

From paper PMC5760527, “Connexin 43 Hemichannel as a Novel Mediator of Sterile and Infectious Inflammatory Diseases” (Scientific Reports, 2018)
